{"source": "patent US11471391B2", "about": "“Cosmetic composition for inhibiting sebum hypersecretion” (NeoPharm Co., Ltd., priority 2019, dated 2022)", "assay_type_in_all_cases": "cell-based", "key": {"human sebocytes [1]": {"system": "human sebocytes", "experiment": "Nile red staining of human sebocytes, microscopic image", "conditions": "Nile red 1 ug/ml for 30 minutes, FIG. 3", "procedure": "(§1) 1×10^5 (1 mL/well) of human sebocytes were adhered on a 12-well plate containing a Dulbecco's modified eagle medium (DMEM)/F12 (1:1) containing 10% fetal bovine serum (FBS)."}, "human sebocytes [2]": {"system": "human sebocytes", "experiment": "Effect of inhibiting sebum secretion, oil red O staining of IGF-1-treated human sebocytes", "procedure": "2. Effect of Inhibiting Sebum Secretion\nas §1\nIn FIG. 2, each sample of a control group (1 μM) which was previously treated with IGF-1 (50 ng/ml) after culturing for 24 hours and an experimental group in which the control group was treated with Compound 1 of Example 1 (20 μM) was stained after 24 hours with a 0.5% oil red O solution for 1 hour and treated with 100% isopropanol, and an absorbance was measured by a 500 nm ELISA reader."}, "PPAR-γ": {"system": "PPAR-γ", "experiment": "Effect of inhibiting expression of PPAR-γ by Western blot in IGF-1-treated human sebocytes", "conditions": "human sebocytes pretreated with IGF-1 (50 ng/ml), sample 20 μM, 24 hours, FIG. 1", "procedure": "1. Effect of Inhibiting Expression of PPAR-γ by Western Blot\nIn the present invention, 1.5×10^5 (1 mL/well) of human sebocytes were adhered on a 12-well plate containing a Dulbecco's modified eagle medium (DMEM)/F12 (1:1) containing 10% fetal bovine serum (FBS). After culturing for 24 hours, cells were collected after 24 hours from each sample of a control group (1 μM) in which the medium was replaced with a serum-free medium and previously treated with IGF-1 (50 ng/ml) and an experimental group in which the control group was treated with Compound 1 of Example 1 (20 μM). In addition, in the present invention, the control means a sample which was not treated with IGF-1, and the comparative group means a sample in which the control group was treated with retinoic acid (20 μM). Thereafter, expression of PPAR-γ protein which is a representative lipid synthetic transcription factor of sebocytes was analyzed by the Western blot, for each of these samples."}}, "data": [{"smiles": "CCCCCCCC(=O)C(CCCCCC)C(=O)N[C@@H](C)C(=O)OC", "note": "(stereo partly shown) [Compound 1, methyl (2-hexyl-3-oxodecanoyl)alaninate]", "values": [{"measurement": "differentiation of fat cells (Nile red staining, microscopic image)", "setting": "human sebocytes [1]", "value": "differentiation of fat cells is more effectively derived"}, {"measurement": "sebum production amount (fat content in sebocytes, oil red O, absorbance 500 nm)", "setting": "human sebocytes [2]; human sebocytes pretreated with IGF-1 (50 ng/ml), 20 μM, 24 hours, FIG. 2", "value": "remarkably decreased"}, {"measurement": "dependence of the sebum production decrease on treatment concentration", "setting": "human sebocytes [2]; human sebocytes pretreated with IGF-1, oil red O, each concentration", "value": "significantly increased depending on the treatment concentration"}, {"measurement": "inhibition of PPAR-γ activation/expression (Western blot)", "setting": "PPAR-γ", "value": "effect of inhibiting PPAR-γ activity is remarkable"}]}]}
